Test results as given in publication PMC2692856, “Emodin targets the β-hydroxyacyl-acyl carrier protein dehydratase from Helicobacter pylori: enzymatic inhibition assay with crystal structural and thermodynamic characterization” (BMC Microbiology, 2009).
Converted amounts (≈) assume the structure as drawn.

Legend:
[1] = system: H. pylori strains ATCC 43504; set-up: method as in PMID 18780820; conditions: cited from earlier work
HpFabZ [2] = biological target: T1, HpFabZ (Helicobacter pylori, UniProt Q5G940); test: HpFabZ enzymatic inhibition assay (spectrophotometric, substrate crotonoyl-CoA); format: biochemical
Description: The expression, purification and enzymatic inhibition assay of HpFabZ enzyme were performed according to the previously published approach with slight modification. The compounds dissolved in 1% DMSO (Dimethyl sulfoxide) were incubated with the enzyme for 2 hours before the assay started. The IC50 value of Emodin was estimated by fitting the inhibition data to a dose-dependent curve using a logistic derivative equation. The inhibition type of Emodin against HpFabZ was determined in the presence of varied inhibitor concentrations. After 2h-incubation, the reaction was started by the addition of crotonoyl-CoA. The Ki value was obtained from Lineweaver-Burk double-reciprocal plots and subsequent secondary plots.
The recombinant HpFabZ enzyme was prepared according to our previously published report. The spectrophotomeric enzyme inhibition assay approach was used for randomly screening HpFabZ inhibitor against our lab in-house natural product library. In addition, to optimize the screening efficiency and creditability, the pH profile of HpFabZ and the potential effects of DMSO on enzymatic activity were investigated [see Additional files 1, 2 and 3]. As shown in Additional file 2: Fig. S1, the pH optimum of HpFabZ was 8.0 and 1% DMSO for dissolving the tested compound had no obvious effect on the enzymatic activity (Additional file 3: Fig. S2.)

HpFabZ [3] = biological target: T1, HpFabZ; test: SPR (Biacore 3000) binding assay of Emodin to immobilized HpFabZ; conditions: 25°C
Description: The binding of Emodin to HpFabZ was analyzed by SPR technology based Biacore 3000 instrument (Biacore AB, Uppsala, Sweden). All the experiments were carried out using HBS-EP (10 mM HEPES pH 7.4, 150 mM NaCl, 3.4 mM EDTA and 0.005% surfactant P20) as running buffer with a constant flow rate of 30 μL/min at 25°C. HpFabZ protein, which was diluted in 10 mM sodium acetate buffer (pH 4.13) to a final concentration of 1.3 μM, was covalently immobilized on the hydrophilic carboxymethylated dextran matrix of the CM5 sensor chip (BIAcore) using standard primary amine coupling procedure. Emodin was dissolved in the running buffer with different concentrations ranging from 0.625 to 20 μM. All data were analyzed by BIAevaluation software, and the sensorgrams were processed by automatic correction for nonspecific bulk refractive index effects. The kinetic analyses of the Emodin/HpFabZ binding were performed based on the 1:1 Langmuir binding fit model according to the procedures described in the software manual.
SPR technology based Biacore 3000 instrument was used to investigate the kinetic feature of Emodin binding to HpFabZ.
The 1:1 Langmuir binding model was used to fit the kinetic parameters regarding the Emodin/HpFabZ binding process, in which the association rate constant (ka) and dissociation rate constant (kd) were fitted simultaneously by rate Equation 1,(1) [drawing 1]
Where, R represents the response unit, C is the concentration of the Emodin, Rmax stands for the maximal response. The equilibrium dissociation constant (KD) was determined by Equation 2.(2) [drawing 2]

HpFabZ [4] = biological target: T1, HpFabZ; test: ITC based assay of Emodin/HpFabZ binding; conditions: 25°C
Description: ITC experiments were performed on a VP-ITC Microcalorimeter (Microcal, Northampton, MA, USA) at 25°C. HpFabZ was dialysed extensively against 20 mM Tris (pH 8.0), 500 mM NaCl and 1 mM EDTA at 4°C. Appropriate concentration of Emodin was prepared from a 50 mM stock in DMSO, and corresponding amount of DMSO (25%) was added to the protein solution to match the buffer composition. The reference power was set to 15 μCal/sec and the cell contents were stirred continuously at 300 rpm throughout the titrations. After an initial injection of Emodin (3 μL, not used for data fitting), 29 injections (6 μL each) were performed with a 3 min-delay between each injection, and then the heat changes were monitored. Blank titrations of Emodin into buffer were also performed to correct for the heats generated by dilution and mixing. The binding isotherm was fit by the single binding site model using a non-linear least squares method based on Origin (Microcal Software, Northampton, MA, USA).
To inspect the kinetic and thermodynamic characters regarding the inhibition of Emodin against HpFabZ enzyme, ITC technology based assay was performed. […] The ITC titration data in Table 2 has clearly established a 1:1 stoichiometry for HpFabZ-Emodin complex formation. Based on the obtained thermodynamic data (ΔH = -17.77 ± 1.11 kcal/mol, TΔS = -9.12 kcal/mol, ΔG = -8.65 kcal/mol), it was easily concluded that the enthalpy contributed favorably to the binding free energy in Emodin/HpFabZ interaction, indicating a significant enthalpy driven binding of Emodin to HpFabZ.

[5] = system: H. pylori strain ATCC 43504; test: Anti-H. pylori activity assay, MIC by standard agar dilution method; format: cell-based; conditions: Helicobacter pylori, ATCC43504, 72 h, 3 days, 37°C, microaerobic
Description: (§1) The bacterial growth inhibition activity for Emodin was evaluated by using Paper Discus Method. DMSO and ampicillin paper were used as negative and positive control respectively. The minimum inhibitory concentrations (MIC) values were determined by the standard agar dilution method using Columbia agar supplemented with 10% sheep blood containing two-fold serial dilutions of Emodin. The plates were inoculated with a bacterial suspension (10^8 cfu/ml) in Brain Heart Infusion broth with a multipoint inoculator. Compound-free Columbia agar media were used as controls. Inoculated plates were incubated at 37°C under microaerobic conditions (85% N2, 10% CO2 and 5% O2) and examined after 3 days.
(§2) The inhibition activities of Emodin against H. pylori strains SS1 and ATCC 43504 were assayed according to the standard agar dilution method.

H. pylori strain SS1 = test: as above; format: cell-based; conditions: Helicobacter pylori, SS1, 72 h, 3 days, 37°C, microaerobic
Description: as §1, §2

H. pylori strains SS1 = system: H. pylori strains SS1; set-up: method as in PMID 18565285; conditions: cited from earlier work

T1 sequence (Q5G940 entry or part of it): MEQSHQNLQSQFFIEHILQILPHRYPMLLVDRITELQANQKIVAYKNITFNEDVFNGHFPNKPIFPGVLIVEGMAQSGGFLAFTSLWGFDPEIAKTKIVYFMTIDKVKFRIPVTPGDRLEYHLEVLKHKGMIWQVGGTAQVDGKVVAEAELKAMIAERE

## COc1cc(O)c2c(c1)O[C@H](c1ccc(O)cc1)CC2=O [(S)-Sakuranetin]
[1]
  MIC, H. pylori strains ATCC 43504: 25 µg/mL (≈ 87.3 µM)

## O=c1cc(-c2ccc(O)cc2)oc2cc(O)cc(O)c12 [Apigenin]
[1]
  MIC, H. pylori strains ATCC 43504: 25 µg/mL (≈ 92.5 µM)

## Cc1cc(O)c2c(c1)C(=O)c1cc(O)cc(O)c1C2=O [Emodin, 3-methyl-1,6,8-trihydroxyanthraquinone]
HpFabZ [2]; 2 h preincubation with enzyme, 1% DMSO
  IC50: 9.7 ± 1 µM
HpFabZ [2]; Lineweaver-Burk and secondary plots, substrate crotonoyl-CoA, read-out: Ki, HpFabZ enzyme inhibition
  Ki: 1.9 ± 0.3 µM
HpFabZ [2]; versus substrate crotonoyl-CoA, double reciprocal plots
  Inhibition type: Competitive
HpFabZ [3]; 1:1 Langmuir fit
  Rmax, maximum analyte binding capacity: 42.3 ± 1.51 RU
  kd, dissociation rate constant: 0.193 ± 0.0061 per s
HpFabZ [3]; HpFabZ immobilized on CM5 chip, read-out: KD, equilibrium dissociation constant determined by SPR
  Kd: 4.59 µM
HpFabZ [4]
  TΔS: -9.12 kcal/mol
  ΔG: -8.65 kcal/mol
  ΔH: -17.77 ± 1.11 kcal/mol
HpFabZ [4]; read-out: KD', equilibrium dissociation constant determined by ITC
  Kd: 0.45 µM
HpFabZ [4]; single binding site model
  N, stoichiometry of Emodin-HpFabZ complex: 1.07 ± 0.035
[5]
  MIC: 10 µg/mL (≈ 37 µM)
H. pylori strain SS1
  MIC: 5 µg/mL (≈ 18.5 µM)

## O=C1C=CC(=O)c2c(O)cccc21 [Juglone]
H. pylori strains SS1
  MIC, H. pylori strains SS1: 5 µg/mL (≈ 28.7 µM)

## O=c1c(O)c(-c2ccc(O)c(O)c2)oc2cc(O)cc(O)c12 [Quercetin]
[1]
  MIC, H. pylori strains ATCC 43504: 100 µg/mL (≈ 331 µM)
